Results reported in publication PMC7206119, “RIP1 inhibition blocks inflammatory diseases but not tumor growth or metastases” (Cell Death and Differentiation, 2019).

What was measured:
Assay in all cases: biochemical
Parameters in all cases: DiscoverX kinase panel, active-site competition binding (KINOMEscan type), percent of control at one concentration
Conditions in all cases: competition binding, percent of control
[1] = molecular target: T1, JAK3(JH1domain-catalytic) (Homo sapiens, UniProt P52333)
T1 construct: JH1domain-catalytic

[2] = molecular target: FGFR3 (Homo sapiens, UniProt P22607)
[3] = molecular target: T2, IKK-alpha (Homo sapiens, UniProt O15111)
T2 construct: gene CHUK
T2 sequence (O15111 whole entry): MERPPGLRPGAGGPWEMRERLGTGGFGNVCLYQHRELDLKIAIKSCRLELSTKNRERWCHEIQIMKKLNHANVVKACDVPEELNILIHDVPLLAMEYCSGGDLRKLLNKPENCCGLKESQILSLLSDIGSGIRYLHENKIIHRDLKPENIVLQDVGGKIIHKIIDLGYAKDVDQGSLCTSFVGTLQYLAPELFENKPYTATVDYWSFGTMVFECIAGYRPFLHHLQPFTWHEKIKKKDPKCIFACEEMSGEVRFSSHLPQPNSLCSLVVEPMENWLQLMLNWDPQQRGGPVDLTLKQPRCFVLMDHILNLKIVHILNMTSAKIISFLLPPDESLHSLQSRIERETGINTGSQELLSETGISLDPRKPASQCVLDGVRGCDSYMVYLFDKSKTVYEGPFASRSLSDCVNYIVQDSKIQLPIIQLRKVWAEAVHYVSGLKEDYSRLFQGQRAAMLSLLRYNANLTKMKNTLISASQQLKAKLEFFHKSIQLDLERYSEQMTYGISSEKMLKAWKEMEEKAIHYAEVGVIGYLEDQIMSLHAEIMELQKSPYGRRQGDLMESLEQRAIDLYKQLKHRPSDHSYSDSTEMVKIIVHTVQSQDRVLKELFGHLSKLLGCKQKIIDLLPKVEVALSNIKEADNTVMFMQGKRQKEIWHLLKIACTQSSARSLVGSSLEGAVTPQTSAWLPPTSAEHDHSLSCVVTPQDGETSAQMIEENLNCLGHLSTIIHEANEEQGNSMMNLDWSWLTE

[4] = molecular target: PLK3 (Homo sapiens, UniProt Q9H4B4)
[5] = molecular target: ULK3 (Homo sapiens, UniProt Q6PHR2)
[6] = molecular target: SGK2 (Homo sapiens, UniProt Q9HBY8)
[7] = molecular target: DDR2 (Homo sapiens, UniProt Q16832)
[8] = molecular target: T3, JNK2 (Homo sapiens, UniProt P45984)
T3 construct: gene MAPK9

[9] = molecular target: PRKCD (Homo sapiens, UniProt Q05655)
[10] = molecular target: CIT (Homo sapiens, UniProt O14578)
CIT, sequence (O14578 whole entry): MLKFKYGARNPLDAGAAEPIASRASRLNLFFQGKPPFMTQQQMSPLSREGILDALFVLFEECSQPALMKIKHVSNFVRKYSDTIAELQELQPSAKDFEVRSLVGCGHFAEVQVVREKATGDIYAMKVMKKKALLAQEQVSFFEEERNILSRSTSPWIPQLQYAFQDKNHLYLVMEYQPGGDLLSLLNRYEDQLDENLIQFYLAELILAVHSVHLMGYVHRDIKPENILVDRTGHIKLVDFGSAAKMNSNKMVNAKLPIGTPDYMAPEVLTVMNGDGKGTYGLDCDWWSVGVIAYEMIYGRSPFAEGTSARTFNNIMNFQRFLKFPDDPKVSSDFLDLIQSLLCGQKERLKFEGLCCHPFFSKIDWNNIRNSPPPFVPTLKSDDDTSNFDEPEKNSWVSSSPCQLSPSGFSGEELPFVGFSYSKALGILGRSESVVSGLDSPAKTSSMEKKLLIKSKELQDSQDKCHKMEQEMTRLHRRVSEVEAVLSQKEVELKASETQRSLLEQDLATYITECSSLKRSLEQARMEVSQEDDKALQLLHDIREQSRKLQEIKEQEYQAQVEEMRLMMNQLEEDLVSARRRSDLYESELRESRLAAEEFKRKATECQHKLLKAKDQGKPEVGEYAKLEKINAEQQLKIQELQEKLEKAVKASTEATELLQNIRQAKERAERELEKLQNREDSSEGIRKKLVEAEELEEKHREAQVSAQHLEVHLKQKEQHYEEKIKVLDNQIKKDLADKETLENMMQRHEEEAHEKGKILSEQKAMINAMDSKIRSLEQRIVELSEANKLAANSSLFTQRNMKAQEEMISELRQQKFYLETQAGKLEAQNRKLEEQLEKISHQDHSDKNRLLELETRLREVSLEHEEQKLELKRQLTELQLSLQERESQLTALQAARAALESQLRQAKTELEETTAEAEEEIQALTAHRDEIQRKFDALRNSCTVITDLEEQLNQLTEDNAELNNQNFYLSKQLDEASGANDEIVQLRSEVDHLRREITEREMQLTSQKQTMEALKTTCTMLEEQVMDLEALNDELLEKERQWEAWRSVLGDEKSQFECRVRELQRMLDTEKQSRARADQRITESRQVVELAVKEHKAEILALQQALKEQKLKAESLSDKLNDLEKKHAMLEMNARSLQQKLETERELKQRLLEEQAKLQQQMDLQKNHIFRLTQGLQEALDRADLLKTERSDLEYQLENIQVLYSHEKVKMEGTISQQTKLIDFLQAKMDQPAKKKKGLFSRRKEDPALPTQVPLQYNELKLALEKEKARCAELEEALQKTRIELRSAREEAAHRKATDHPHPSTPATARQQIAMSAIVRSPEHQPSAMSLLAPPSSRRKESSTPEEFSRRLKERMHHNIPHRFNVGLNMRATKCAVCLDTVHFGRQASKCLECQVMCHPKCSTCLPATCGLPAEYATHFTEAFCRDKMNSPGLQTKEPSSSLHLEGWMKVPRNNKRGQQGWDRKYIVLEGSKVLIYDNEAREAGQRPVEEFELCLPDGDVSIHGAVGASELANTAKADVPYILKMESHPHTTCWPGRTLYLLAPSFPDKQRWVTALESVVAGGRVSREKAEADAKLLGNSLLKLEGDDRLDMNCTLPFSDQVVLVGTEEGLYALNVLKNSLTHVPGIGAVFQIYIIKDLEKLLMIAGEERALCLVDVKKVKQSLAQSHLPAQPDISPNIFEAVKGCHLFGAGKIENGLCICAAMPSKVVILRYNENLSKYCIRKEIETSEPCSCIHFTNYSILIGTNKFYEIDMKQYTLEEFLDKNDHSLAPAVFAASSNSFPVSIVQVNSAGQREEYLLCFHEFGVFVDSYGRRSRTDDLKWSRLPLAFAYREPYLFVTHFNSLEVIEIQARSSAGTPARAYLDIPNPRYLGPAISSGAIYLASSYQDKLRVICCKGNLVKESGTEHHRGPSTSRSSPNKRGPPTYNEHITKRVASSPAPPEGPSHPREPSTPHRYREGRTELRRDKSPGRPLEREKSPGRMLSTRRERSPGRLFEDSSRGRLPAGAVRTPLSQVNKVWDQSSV

[11] = molecular target: BTK (Homo sapiens, UniProt Q06187)
[12] = molecular target: ACVR1B (Homo sapiens, UniProt P36896)
ACVR1B, sequence (P36896 whole entry): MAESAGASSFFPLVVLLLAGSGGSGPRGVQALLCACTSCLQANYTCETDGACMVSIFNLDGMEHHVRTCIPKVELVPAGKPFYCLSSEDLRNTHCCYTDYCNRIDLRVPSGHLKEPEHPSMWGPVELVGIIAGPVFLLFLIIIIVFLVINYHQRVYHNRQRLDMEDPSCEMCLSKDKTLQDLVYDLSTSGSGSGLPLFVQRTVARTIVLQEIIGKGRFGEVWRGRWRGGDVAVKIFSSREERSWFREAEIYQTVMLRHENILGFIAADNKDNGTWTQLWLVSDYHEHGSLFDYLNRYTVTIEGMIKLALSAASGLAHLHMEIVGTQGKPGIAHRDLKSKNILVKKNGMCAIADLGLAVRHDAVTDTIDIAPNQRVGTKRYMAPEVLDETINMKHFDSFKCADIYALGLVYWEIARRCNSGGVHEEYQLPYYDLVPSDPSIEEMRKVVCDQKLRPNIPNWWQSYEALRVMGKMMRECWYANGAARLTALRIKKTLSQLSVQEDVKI

[13] = molecular target: EPHA3 (Homo sapiens, UniProt P29320)
[14] = molecular target: FLT3(K663Q) (Homo sapiens, UniProt P36888, K663Q)
[15] = molecular target: MAPKAPK5 (Homo sapiens, UniProt Q8IW41)
MAPKAPK5, sequence (Q8IW41 whole entry): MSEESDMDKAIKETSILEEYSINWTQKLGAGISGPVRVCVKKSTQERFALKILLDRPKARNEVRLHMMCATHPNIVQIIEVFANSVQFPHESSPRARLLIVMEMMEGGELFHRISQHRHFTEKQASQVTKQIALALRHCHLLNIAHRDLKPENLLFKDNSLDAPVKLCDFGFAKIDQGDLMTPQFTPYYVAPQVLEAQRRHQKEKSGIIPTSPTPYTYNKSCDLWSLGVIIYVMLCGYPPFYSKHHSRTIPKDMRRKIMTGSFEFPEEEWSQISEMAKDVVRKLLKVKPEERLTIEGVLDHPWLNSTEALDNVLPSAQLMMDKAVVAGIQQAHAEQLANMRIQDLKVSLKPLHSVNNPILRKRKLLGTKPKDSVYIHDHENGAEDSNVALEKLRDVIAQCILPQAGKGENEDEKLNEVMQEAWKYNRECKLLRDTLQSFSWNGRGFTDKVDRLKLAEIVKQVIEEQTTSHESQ

[16] = molecular target: EPHA5 (Homo sapiens, UniProt P54756)
[17] = molecular target: CAMK2B (Homo sapiens, UniProt Q13554)
[18] = molecular target: TNIK (Homo sapiens, UniProt Q9UKE5)
[19] = molecular target: T4, ABL1-nonphosphorylated (Homo sapiens, UniProt P00519)
T4 construct: nonphosphorylated

[20] = molecular target: T5, ERK5 (Homo sapiens, UniProt Q13164)
T5 construct: gene MAPK7

[21] = molecular target: EPHA8 (Homo sapiens, UniProt P29322)
EPHA8, sequence (P29322 whole entry): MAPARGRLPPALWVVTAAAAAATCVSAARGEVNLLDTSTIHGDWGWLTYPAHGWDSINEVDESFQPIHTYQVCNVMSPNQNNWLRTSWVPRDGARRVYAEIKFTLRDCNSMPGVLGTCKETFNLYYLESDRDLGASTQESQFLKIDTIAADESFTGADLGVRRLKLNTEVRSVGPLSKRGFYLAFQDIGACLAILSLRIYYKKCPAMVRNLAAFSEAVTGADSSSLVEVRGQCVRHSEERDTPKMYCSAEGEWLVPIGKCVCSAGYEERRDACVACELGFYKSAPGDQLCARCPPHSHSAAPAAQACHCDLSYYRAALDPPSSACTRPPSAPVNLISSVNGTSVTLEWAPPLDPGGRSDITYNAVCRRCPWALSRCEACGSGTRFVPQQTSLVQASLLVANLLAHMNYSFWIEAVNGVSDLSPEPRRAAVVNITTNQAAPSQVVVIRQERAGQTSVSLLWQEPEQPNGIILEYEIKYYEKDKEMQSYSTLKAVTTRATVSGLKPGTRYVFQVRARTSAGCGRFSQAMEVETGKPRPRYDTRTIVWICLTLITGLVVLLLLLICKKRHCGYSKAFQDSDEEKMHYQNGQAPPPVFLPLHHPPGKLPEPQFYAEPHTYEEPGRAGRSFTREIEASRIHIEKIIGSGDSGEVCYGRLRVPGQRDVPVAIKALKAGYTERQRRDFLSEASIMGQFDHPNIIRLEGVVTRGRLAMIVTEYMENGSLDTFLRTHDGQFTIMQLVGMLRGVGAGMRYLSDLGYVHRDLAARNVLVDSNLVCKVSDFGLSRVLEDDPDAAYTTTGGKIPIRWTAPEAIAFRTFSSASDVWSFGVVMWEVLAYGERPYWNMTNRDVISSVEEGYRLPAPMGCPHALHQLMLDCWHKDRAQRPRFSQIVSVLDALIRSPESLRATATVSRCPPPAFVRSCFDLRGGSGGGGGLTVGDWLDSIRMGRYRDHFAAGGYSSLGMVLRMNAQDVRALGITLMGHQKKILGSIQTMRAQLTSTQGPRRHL

[22] = molecular target: MKNK2 (Homo sapiens, UniProt Q9HBH9)

COc1cc2c(cn1)N(C)C(=O)[C@@H](NC(=O)c1nc3n(n1)[C@H](c1ccccc1)CC3)CC2 [GNE684, (S)-N-((S)-7-methoxy-1-methyl-2-oxo-2,3,4,5-tetrahydro-1H-pyrido[3,4-b]azepin-3-yl)-5-phenyl-6,7-dihydro-5H-pyrrolo[1,2-b][1,2,4]triazole-2-carboxamide]
remaining binding at 10 µM [1]: 97%
remaining binding at 10 µM [2]: 100%
remaining binding at 10 µM [3]: 100%
remaining binding at 10 µM [4]: 89%
remaining binding at 10 µM [5]: 100%
remaining binding at 10 µM [6]: 99%
remaining binding at 10 µM [7]: 100%
remaining binding at 10 µM [8]: 98%
remaining binding at 10 µM [9]: 86%
remaining binding at 10 µM [10]: 100%
remaining binding at 10 µM [11]: 100%
remaining binding at 10 µM [12]: 93%
remaining binding at 10 µM [13]: 91%
remaining binding at 10 µM [14]: 100%
remaining binding at 10 µM [15]: 100%
remaining binding at 10 µM [16]: 100%
remaining binding at 10 µM [17]: 76%
remaining binding at 10 µM [18]: 67%
remaining binding at 10 µM [19]: 67%
remaining binding at 10 µM [20]: 85%
remaining binding at 10 µM [21]: 100%
remaining binding at 10 µM [22]: 96%
